Assay results published in ChEMBL document CHEMBL4382249, “1-Arylsulfonyl indoline-benzamides as a new antitubulin agents, with inhibition of histone deacetylase” (Eur J Med Chem, 2019).

Assays:
KB = experiment: Growth inhibition of human KB cells after 48 hrs by SRB assay; format: functional, cell-based
MKN-45 = experiment: Growth inhibition of human MKN45 cells after 48 hrs by SRB assay; format: functional, cell-based; settings: MKN-45, 48 h
[1] = target: T1, Polyamine deacetylase HDAC10 (Homo sapiens, UniProt Q969S8); experiment: Inhibition of human HDAC10 using RHKKAc as substrate by fluorescence assay
T1 sequence (Q969S8 whole entry): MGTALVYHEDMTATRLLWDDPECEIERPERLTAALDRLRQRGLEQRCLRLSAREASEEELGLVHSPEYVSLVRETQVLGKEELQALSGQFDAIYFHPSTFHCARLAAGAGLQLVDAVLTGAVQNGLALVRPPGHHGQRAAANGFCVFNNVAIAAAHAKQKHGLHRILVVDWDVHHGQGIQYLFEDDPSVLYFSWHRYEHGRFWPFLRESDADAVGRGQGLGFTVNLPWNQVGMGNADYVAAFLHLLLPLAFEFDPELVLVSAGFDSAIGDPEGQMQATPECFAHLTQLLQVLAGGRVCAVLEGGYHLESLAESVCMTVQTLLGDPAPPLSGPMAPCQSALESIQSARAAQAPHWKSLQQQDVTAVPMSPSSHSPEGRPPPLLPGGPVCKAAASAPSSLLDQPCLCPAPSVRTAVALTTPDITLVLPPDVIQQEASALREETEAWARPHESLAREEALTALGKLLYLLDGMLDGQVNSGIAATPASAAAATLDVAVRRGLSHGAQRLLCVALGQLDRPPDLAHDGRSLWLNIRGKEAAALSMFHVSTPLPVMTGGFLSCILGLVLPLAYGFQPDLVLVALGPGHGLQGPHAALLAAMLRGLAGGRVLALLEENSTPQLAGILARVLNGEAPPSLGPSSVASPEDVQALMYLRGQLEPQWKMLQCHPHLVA

Histone deacetylase 4 = Histone deacetylase 4 (Homo sapiens, UniProt P56524); experiment: Inhibition of human HDAC4 using fluorogenic p53-derived peptide RHKK(Ac) as substrate by fluorescence assay
Histone deacetylase 4, sequence (P56524 whole entry): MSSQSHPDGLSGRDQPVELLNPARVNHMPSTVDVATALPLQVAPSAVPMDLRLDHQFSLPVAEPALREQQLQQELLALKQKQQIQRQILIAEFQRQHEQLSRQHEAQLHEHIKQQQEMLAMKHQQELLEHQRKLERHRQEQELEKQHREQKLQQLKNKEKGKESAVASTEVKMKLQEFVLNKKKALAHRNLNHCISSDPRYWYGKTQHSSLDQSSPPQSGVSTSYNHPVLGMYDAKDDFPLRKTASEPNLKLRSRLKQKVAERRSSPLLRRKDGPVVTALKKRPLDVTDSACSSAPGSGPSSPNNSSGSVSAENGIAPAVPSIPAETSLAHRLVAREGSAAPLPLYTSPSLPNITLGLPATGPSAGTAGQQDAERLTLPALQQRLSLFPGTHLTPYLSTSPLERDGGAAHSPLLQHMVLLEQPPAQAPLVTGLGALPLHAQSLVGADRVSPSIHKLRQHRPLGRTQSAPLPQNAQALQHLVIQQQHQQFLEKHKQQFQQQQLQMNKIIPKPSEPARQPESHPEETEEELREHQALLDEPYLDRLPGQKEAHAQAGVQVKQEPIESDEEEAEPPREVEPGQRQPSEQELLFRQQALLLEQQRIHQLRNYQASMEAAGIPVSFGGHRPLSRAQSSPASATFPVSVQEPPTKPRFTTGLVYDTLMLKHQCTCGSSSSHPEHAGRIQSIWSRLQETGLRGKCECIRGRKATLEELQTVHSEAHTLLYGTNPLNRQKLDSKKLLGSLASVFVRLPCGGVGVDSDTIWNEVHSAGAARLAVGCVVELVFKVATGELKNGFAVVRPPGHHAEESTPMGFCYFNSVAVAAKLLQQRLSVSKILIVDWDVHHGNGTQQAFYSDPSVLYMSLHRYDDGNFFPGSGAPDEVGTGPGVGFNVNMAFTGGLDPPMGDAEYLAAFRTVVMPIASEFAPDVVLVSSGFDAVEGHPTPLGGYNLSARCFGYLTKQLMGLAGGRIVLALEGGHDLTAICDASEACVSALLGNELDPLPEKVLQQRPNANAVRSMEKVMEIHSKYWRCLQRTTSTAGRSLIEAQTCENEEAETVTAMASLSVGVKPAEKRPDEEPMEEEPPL

Histone deacetylase 9 = Histone deacetylase 9 (Homo sapiens, UniProt Q9UKV0); experiment: Inhibition of human HDAC9 using fluorogenic p53 (379-382) peptide RHKK(Ac) as substrate by fluorescence assay
Histone deacetylase 9, sequence (Q9UKV0 whole entry): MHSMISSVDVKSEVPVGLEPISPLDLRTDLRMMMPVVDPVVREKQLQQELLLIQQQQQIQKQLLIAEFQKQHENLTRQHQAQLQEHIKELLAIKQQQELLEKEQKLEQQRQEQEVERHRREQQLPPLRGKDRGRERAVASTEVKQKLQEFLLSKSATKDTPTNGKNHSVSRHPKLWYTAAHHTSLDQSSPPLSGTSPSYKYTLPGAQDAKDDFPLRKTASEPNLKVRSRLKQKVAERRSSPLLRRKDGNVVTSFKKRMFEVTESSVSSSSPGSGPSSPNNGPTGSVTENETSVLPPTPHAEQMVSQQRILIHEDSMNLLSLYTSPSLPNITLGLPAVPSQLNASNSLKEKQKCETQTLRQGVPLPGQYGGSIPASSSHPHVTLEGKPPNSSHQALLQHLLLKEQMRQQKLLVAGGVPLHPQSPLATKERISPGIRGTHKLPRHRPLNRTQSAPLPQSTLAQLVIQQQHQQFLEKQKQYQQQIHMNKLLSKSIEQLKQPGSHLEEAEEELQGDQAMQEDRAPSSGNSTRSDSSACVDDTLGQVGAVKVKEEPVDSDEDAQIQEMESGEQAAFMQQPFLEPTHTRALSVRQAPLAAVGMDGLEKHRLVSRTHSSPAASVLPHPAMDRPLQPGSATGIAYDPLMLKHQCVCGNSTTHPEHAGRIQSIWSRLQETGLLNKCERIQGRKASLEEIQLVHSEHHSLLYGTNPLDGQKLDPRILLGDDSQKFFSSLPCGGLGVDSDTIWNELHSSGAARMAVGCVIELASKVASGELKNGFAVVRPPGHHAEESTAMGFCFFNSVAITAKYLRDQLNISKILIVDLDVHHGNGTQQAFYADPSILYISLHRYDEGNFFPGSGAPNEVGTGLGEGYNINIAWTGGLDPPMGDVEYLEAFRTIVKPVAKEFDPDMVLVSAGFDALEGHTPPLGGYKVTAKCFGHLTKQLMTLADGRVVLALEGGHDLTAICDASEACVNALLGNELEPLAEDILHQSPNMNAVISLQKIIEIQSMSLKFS

A549 = experiment: Growth inhibition of human A549 cells after 48 hrs by SRB assay; format: functional, cell-based; settings: A549, 48 h
Tubulin = Tubulin (Bos taurus, UniProt Q6B856+Q862L2+Q862F3)
Tubulin (Bos taurus) [2] = target: T2, Tubulin (Bos taurus) (UniProt Q6B856+Q862L2+Q862F3); settings: at 1 µM
Tubulin (Bos taurus) [3] = target: T2, Tubulin (Bos taurus); settings: at 5 µM
[4] = Growth inhibition of human KB-VIN10 cells after 48 hrs by SRB assay; format: functional; settings: KB-VIN10, 48 h
[5] = Growth inhibition of human KB-S15 cells after 48 hrs by SRB assay; format: functional; settings: KB-S15, 48 h
[6] = Growth inhibition of human KB-7d cells after 48 hrs by SRB assay; format: functional; settings: KB7D

SMILES | IC50 (KB) [nM] | IC50 (MKN-45) [nM] | IC50 (A549) [nM] | IC50 (Tubulin) [µM] | further results
Nc1ccccc1NC(=O)c1ccc(CNC(=O)OCc2cccnc2)cc1 [ENTINOSTAT] | 520 | 1200 | – | – | IC50 [1]: Not Active; IC50 (Histone deacetylase 4): Not Active; IC50 (Histone deacetylase 9): Not Active
COc1ccc(S(=O)(=O)n2ccc3ccc(NCc4ccc(C(=O)Nc5ccccc5N)cc4)cc32)cc1 | 1440 | 2500 | 3900 | > 10 | –
COc1ccc(S(=O)(=O)N2CCc3cccc(NCc4ccc(C(=O)Nc5cccc(N)c5)cc4)c32)cc1 | 200 | 420 | 450 | 2.3 | –
COc1ccc(S(=O)(=O)Nc2cccnc2Nc2ccc(O)cc2)cc1 [ABT-751] | – | – | – | 3.2 | inhibition (Tubulin (Bos taurus) [2]): 40.2%; inhibition (Tubulin (Bos taurus) [3]): 71.6%
N#Cc1ccc(S(=O)(=O)N2CCc3cccc(NCc4ccc(C(=O)Nc5ccccc5N)cc4)c32)cc1 | 560 | 880 | 920 | 6.4 | –
COc1ccc(S(=O)(=O)N2CCc3cccc(NC(=O)c4ccc(C(=O)Nc5ccccc5N)cc4)c32)cc1 | – | – | > 10000 | – | –
COc1cccc(S(=O)(=O)N2CCc3cccc(NCc4ccc(C(=O)Nc5ccccc5N)cc4)c32)c1 | 780 | 800 | 1100 | 3.5 | –
COc1ccc(S(=O)(=O)n2ccc3cccc(NCc4ccc(C(=O)Nc5ccccc5N)cc4)c32)cc1 | 130 | 440 | 640 | 3.7 | –
COc1ccc(S(=O)(=O)N2CCc3cccc(NCc4ccc(C(=O)Nc5ccccc5N)cc4)c32)cc1OC | 1400 | 2300 | 2700 | > 10 | –
COc1ccc(S(=O)(=O)N2CCc3cccc(NCc4ccc(C(=O)Nc5ccc(N)cc5)cc4)c32)cc1 | 260 | 480 | 570 | 3.7 | –
COc1ccc(S(=O)(=O)N2CCc3cccc(CCc4ccc(C(=O)Nc5ccccc5N)cc4)c32)cc1 | 110 | 130 | 200 | 2.5 | –
COc1ccc(S(=O)(=O)N2CCc3cccc(/C=C/c4ccc(C(=O)Nc5ccccc5N)cc4)c32)cc1 | 230 | 200 | 270 | 2.7 | –
COc1ccc(S(=O)(=O)N2CCc3cc(NCc4ccc(C(=O)Nc5ccccc5N)cc4)ccc32)cc1 | 2100 | 5000 | 8900 | > 10 | –
COc1ccc(S(=O)(=O)N2CCc3cccc(Nc4ccc(C(=O)Nc5ccccc5N)cc4)c32)cc1 | 120 | 140 | 190 | 2.3 | IC50 [4]: 114 nM; IC50 [5]: 106 nM; IC50 [6]: 78.3 nM; inhibition (Tubulin (Bos taurus) [2]): 64.3%; inhibition (Tubulin (Bos taurus) [3]): 98.8%
Nc1ccccc1NC(=O)c1ccc(CNc2cccc3c2N(S(=O)(=O)c2ccccc2)CC3)cc1 | 260 | 780 | 870 | 3.2 | –
COc1ccc(S(=O)(=O)N2CCc3cccc(NCc4ccc(C(=O)Nc5ccccc5O)cc4)c32)cc1 | 8700 | 10000 | 10500 | > 10 | –
Nc1ccccc1NC(=O)c1ccc(CNc2cccc3c2N(S(=O)(=O)c2ccc(O)cc2)CC3)cc1 | 440 | 780 | 860 | 3.3 | –
COc1ccc(S(=O)(=O)N2CCc3ccc(NCc4ccc(C(=O)Nc5ccccc5N)cc4)cc32)cc1 | 870 | 2100 | 2400 | > 10 | –
Nc1ccccc1NC(=O)c1ccc(CNc2cccc3c2N(S(=O)(=O)c2ccc(Cl)cc2)CC3)cc1 | 210 | 460 | 560 | 4 | –
COc1ccc(S(=O)(=O)N2CCc3cccc(NCc4cccc(C(=O)Nc5ccccc5N)c4)c32)cc1 | 2200 | 3900 | 5700 | 8.5 | –
Nc1ccccc1NC(=O)c1ccc(CNc2cccc3c2N(S(=O)(=O)c2ccc(F)cc2)CC3)cc1 | 540 | 870 | 930 | 3.7 | –
